Assay results: patent US20150307461A1, “ANTIVIRAL COMPOUNDS” (priority 2012, published 2015)

Legend:
Test in all cases: microbe, parasite or virus in culture
[1] = tested on: Pseudotyped HCV GT1a particles (HCVpp); type: cell-based, HCV GT1a H77 strain; conditions: Hepatitis C virus, 72 h, read-out: HCVpp GT-1a (EC50, μM)
[2] = tested on: Pseudotyped HCV GT1b particles (HCVpp); type: cell-based, HCV GT1b Con1 strain; conditions: Hepatitis C virus, 72 h, read-out: HCVpp GT-1b (EC50, μM)
[3] = tested on: pseudotyped VSV G particles (VSVpp); type: cell-based; conditions: Vesicular stomatitis virus, 72 h, read-out: VSVpp (EC50, μM)

SMILES | EC50 [1] [µM] | EC50 [2] [µM] | EC50 [3] [µM]
Cc1c(Cl)cc(Nc2n[nH]c(N)n2)cc1Cl [Compound I-38, N*3*-(3,5-Dichloro-4-methyl-phenyl)-1H-[1,2,4]triazole-3,5-diamine] | 0.023 | 0.75 | 79.4
Nc1nc(Nc2ccc(S(N)(=O)=O)cc2)n[nH]1 [Compound I-25, 4-(5-Amino-1H-[1,2,4]triazol-3-ylamino)-benzenesulfonamide] | 86.4 | 100 | 100
CC(C)c1cccc(Nc2n[nH]c(N)n2)c1 [Compound I-56, N^3-(3-Isopropyl-phenyl)-1H-[1,2,4]triazole-3,5-diamine] | 8.36 | 19.6 | 100
N#Cc1c(Cl)cc(Nc2n[nH]c(N)n2)cc1C(F)(F)F [Compound I-43, 4-(5-amino-1H-1,2,4-triazol-3-ylamino)-2-chloro-6-(trifluoromethyl)benzonitrile] | 0.038 | 0.146 | 30.3
Nc1nc(Nc2ccc(S(=O)(=O)C(F)(F)F)c(Cl)c2)n[nH]1 [Compound I-7, N*3*-(3-Chloro-4-trifluoromethanesulfonyl-phenyl)-1H-[1,2,4]triazole-3,5-diamine] | 1.28 | 0.91 | 100
